From patent US20250114313A1, “OLIGO-BENZAMIDE ANALOGS AND THEIR USE IN CANCER TREATMENT” (BOARD OF REGENTS, THE UNIVERSITY OF TEXAS SYSTEM, priority 2022, published 2025)
Entries after “also recorded” stand apart in the source; their conditions may differ.

What was measured:
[1] = tested on: TNBC; experiment: ER stress, cell death and lysosomes in TNBC (discussion, no method); assay type: cell-based
[2] = tested on: TNBC cells (MDA-MB-231); experiment: Live cell imaging with SYTOX Green, cell death in TNBC cells; assay type: cell-based, Human; settings: within 30 hours of treatment; control <1%
Experimental: (§1) Live cell imaging: Live cell images were acquired by Lionheart FX automated microscope (BioTek). Cells were plated one day before the experiment. For cell death assay, 0.2 μM SYTOX Green was added into the plate 15 min before the experiment.

[3] = tested on: D2A1 xenografts; experiment: D2A1 syngeneic tumor model; assay type: in vivo, BALB/c mice; settings: 10 mg/kg daily
Experimental: (§2) Animal Studies: All animal experiments were performed using UTHSA and UTSW IACUC approved protocols. For cell based xenograft tumor assays, TNBC cells (2×10^5-2×10^6) were mixed with an equal volume of matrigel and implanted in the mammary fat pads of 6-week-old female athymic nude mice as described^33. BALB/c mice were used for D2A1 syngeneic model. Once tumors reached measurable size, mice were divided into control (vehicle) and ERX-41 (10 mg/kg/oral) treatment groups. Mice bearing TNBC PDX tumors were purchased from Jackson laboratory (TM00089; TM00096; TM00098). TNBC PDX line UTPDX0001 establishment was earlier described^38. WHIM-20 ER+PDX model was purchased from Horizon Labs. OCa-PDX-38 was received from UTHSA ObGyn tissue procurement core. When tumors reached ˜750 mm^3 they were dissected into 2 mm^3 pieces and implanted into the mammary fat pads of 6 weeks old female SCID or NSG mice. When the tumor volume reached ˜200 mm^3, mice were randomized for treatment. The mice were monitored daily for adverse toxic effects and tumor volume was measured every 3-4 days using calipers. For establishing ES2 tumors, ES2/GFP/LUC cells were injected i.p. and tumors were measured twice a week using Xenogen in vivo imaging system. […] The mice were monitored daily for adverse toxic effects. […] The sections were scored by two independent evaluators blinded to the patient's clinical status.

[4] = tested on: MDA-MB-231 TNBC xenografts; experiment: MDA-MB-231 TNBC xenografts, ERX-41; assay type: in vivo; settings: oral, 10 mg/kg/day
Experimental: Animal Studies: All animal experiments were performed using UTHSA and UTSW IACUC approved protocols. For cell based xenograft tumor assays, TNBC cells (2×10^5-2×10^6) were mixed with an equal volume of matrigel and implanted in the mammary fat pads of 6-week-old female athymic nude mice as described^33. BALB/c mice were used for D2A1 syngeneic model. Once tumors reached measurable size, mice were divided into control (vehicle) and ERX-41 (10 mg/kg/oral) treatment groups. Mice bearing TNBC PDX tumors were purchased from Jackson laboratory (TM00089; TM00096; TM00098). TNBC PDX line UTPDX0001 establishment was earlier described^38. WHIM-20 ER+PDX model was purchased from Horizon Labs. OCa-PDX-38 was received from UTHSA ObGyn tissue procurement core. When tumors reached ˜750 mm^3 they were dissected into 2 mm^3 pieces and implanted into the mammary fat pads of 6 weeks old female SCID or NSG mice. When the tumor volume reached ˜200 mm^3, mice were randomized for treatment. The mice were monitored daily for adverse toxic effects and tumor volume was measured every 3-4 days using calipers. For establishing ES2 tumors, ES2/GFP/LUC cells were injected i.p. and tumors were measured twice a week using Xenogen in vivo imaging system. At the end of each experiment, the mice were euthanized, and the tumors were removed, weighed and processed for histological studies and protein analysis. Dose were selected based on pilot MTD study of 10, 50 100 mg/kg of ERX-41 for 14 days using C57BL6 mice. The mice were monitored daily for adverse toxic effects. IHC analysis was conducted as described previously^39 and immunoreactivity was visualized using DAB substrate and counterstained with hematoxylin (Vector Laboratories Inc. Burlingame, CA). Control rabbit IgG staining was used as a negative control. The sections were scored by two independent evaluators blinded to the patient's clinical status.

[5] = tested on: MDA-MB-231 cells with LIPA KO; experiment: CellTiter-Glo response of MDA-MB-231 knockout clones; assay type: cell-based, Human
Experimental: Cell viability assays: Cells were seeded in 96-well plates (2×10^3 cells/well) one day before the treatment. Cells were treated with varying concentrations of ERX-41 or ERX-11 analogs for 3-6 days. Then effects of ERX-41 or ERX-11 analogs on cell viability were measured in triplicate or sextuplicate with multiple biological replicates using the WST-1 (Promega), MTT as previously described^33 or CellTiter-Glo 2.0 (Promega) assays.
CRISPR Screen: Human Brunello CRISPR knockout pooled library was purchased from Addgene (Addgene #73178) (via David Root and John Doench). The library containing lentivirus was transduced into cells in biological replicates or triplicates at a multiplicity of infection (MOI) of ˜0.5 and a minimum of 500× coverage. Two days later after transduction, uninfected cells were removed with puromycin selection. The library containing cells was treated with vehicle or ERX-41 for 2 weeks. Genomic DNA was extracted from same number of cells. The sgRNA cassette retrieved by PCR, followed by Next Generation Sequencing (NGS). NGS data was analyzed by MAGeCK (Li et al., Genome Biology, 2014 PMID: 25476604).
Lentiviral constructs cloning: LentiCRISPRv2 vector was used for CRSPR KO experiments. sgRNAs, which were chosen from human CRISPR knockout pooled library, were cloned into lentiCRISPRv2 vector^34. […]

[6] = tested on: HSPA5, DDIT3, sXBP1 mRNA in TNBC cells; experiment: RT-qPCR of ER stress / UPR genes, TNBC cells; assay type: cell-based, Human
Experimental: Real-time quantitative PCR (RT-qPCR): Total RNA was prepared from breast cancer cells using the RNeasy Mini Kit (Qiagen) according to the manufacturer protocols. Subsequently, total RNAs were reverse transcribed into cDNA using iScript Reverse Transcription Supermix (Bio-rad) and by using SYBR Green on an Illumina Real-Time PCR system.

[7] = tested on: TNBC cells; experiment: Global de novo protein synthesis (puromycin labeled nascent proteins), TNBC cells; assay type: cell-based, Human; settings: 1 μM
Experimental: Western blotting: Whole cell lysates from breast cancer cells were prepared with 2× sample buffer (60 mM Tris-HCl, pH 6.8, 2% sodium dodecyl sulfate, 10% glycerol), and before loading mixed with loading buffer (5% 2-mercaptoethanol, 0.1% bromophenol blue) and boiled for denaturation, as previously described.^33 Proteins were separated by SDS-PAGE and subjected to Western analysis using antibodies. To detect nascent translated proteins, puromycin (final concentration 10 μg/mL) was added into cell plates 30 minutes before harvesting cells. Then samples were subjected to the Western blotting. Nascent proteins were detected by anti-puromycin antibody.

[8] = tested on: SUM-159 clones with LIPA KO; experiment: Live cell imaging with SYTOX Green, SUM-159 LIPA KO; assay type: cell-based, Human; settings: 1 μM
Experimental: as §1

[9] = tested on: four distinct TNBC PDXs; experiment: TNBC PDXs in mammary fat pad; assay type: in vivo, mice; settings: daily oral, 10 mg/kg/day
Experimental: as §2

## CC(C)COc1cc(C(=O)Nc2ccc(C(=O)N[C@H]3CC[C@H](C)CC3)cc2OCC(C)C)ccc1NC(=O)c1ccc([N+](=O)[O-])c(OCCO)c1 [ERX-41]
[1]
  changes in lysosomes: no significant changes in lysosomes
[2]
  cells dead: > 90%
[3]
  growth of D2A1 xenografts: significantly reduce the growth
[4]
  extirpated tumor weights and sizes at end of study: decreased tumor growth
  growth of established xenografts: significantly decreased the growth
  overt toxicity, body weights of treated mice: no alterations in body weights
[5]
  effect of LIPA knockout on cytotoxic response: abrogate the cytotoxic response to ERX-41
[6]; 1 μM, TNBC cells
  upregulation of HSPA5, DDIT3, sXBP1 mRNA: 60-80 fold
[6]; RT-qPCR, parental SUM-159 cells
  expression of sXBP1 and DDIT3, parental SUM-159: induces expression of UPR genes sXBP1 and DDIT3
[7]
  global de novo protein synthesis: blocked; also recorded: blocks de novo protein synthesis
[8]
  cell death in SUM-159 with LIPA KO: dramatic decrease in cell death
[9]
  rates of growth of PDX tumors: significantly decreased the rates of growth of the tumors
